The results in this text go back to patent US6835754B2, “Use of aryl nitrone compounds in methods for treating neuropathic pain” (Renovis, Inc., priority 2001, dated 2004).

For data set [1], the system named is male Swiss Webster mice, phenylquinone-induced writhing. As to the kind of experiment: Phenylquinone (PQ) writhing assay, % inhibition (Swiss Webster mice). The class given is in vivo. The following applies: for % Inhibition of Writhing Response / inhibition at 30 mg/kg: 30 mg/kg orally in 1% methyl cellulose, 1 hour before PQ 2 mg/kg ip; for inhibition at 30 mg/kg: read-out: % Inhibition of Writhing Response. The method, then: Test compounds were prepared as a suspension in 1% methyl cellulose and dosed orally at a dose of 30 mg/kg to male Swiss Webster mice weighing between 15 and 25 g with 10 mice per group. Test compounds was given 1 hour before the injection of phenylquinone. Phenylquinone (Sigma) was injected intraperitoneally at a dose of 2 mg/kg. After a 5 minute acclimation period, the number of writhes was counted for a 5 minute observation period for each mouse. The total number of writhes for each test compound was compared with a vehicle group. Results were expressed as % inhibition compared to the vehicle treated group means (Table VII).
In related experiment, a dose response relationship was established for the compound of Example 1 using the same experimental protocl as above. […] This is shown graphically in FIG. 2.
A general note: In writhing tests, fewer writhes than in controls are read as antinociception.

In data set [2] the test system is ICR derived male mice, phenylquinone-induced writhing. As to the kind of experiment: Phenylquinone (PQ) Writhing assay, number of writhes (MDS Panlabs, ICR mice). The following applies: for # Writhes (X + SEM): per os, 60 min before PQ 2 mg/kg ip, vehicle 20.8 ± 0.7, **P<0.01. The class given is in vivo. On the procedure: The compounds of Example 20 and Example 16 administered orally at doses of 10, 30 and 100 mg/kg. Vehicle of 2% Tween 80 in distilled water was used.
In this study, ICR derived male mice provided by animal breeding center of MDS Panlabs Taiwan, Ltd. were used. Space allocation for 10 animals was 45×23×15 cm. Mice were housed in APEC^R (Allentown Gaging, Allentown, N.J. 08501, U.S.A.) cages in a positive pressure isolation (NuAire^R, Mode: Nu-605, airflow velocity 50±5 ft/min, HEPA Filter) and maintained in a controlled temperature (22°-24° C.) and humidity (60%-80%) environment with 12 hour light dark cycles for at least one week in MDS Panlabs Taiwan laboratory prior to be used. Free access to standard lab chow for mice (Fwusow Industry Co., Limited, Taiwan) and tap water was granted. All aspects of this work including housing, experimentation and disposal of animals were performed in general accordance with the International Guiding Principles for Biomedical Research Involving Animals (CIOMS Publication No. ISBN 92 90360194, 1985).
The method of Siegmund, E. et al., Proc. Soc. Exp. Biol. Med. 95: 729-731, 1957, “A method for evaluating both non-narcotic and narcotic analgesics” was used. One hour after vehicle or compound administration, the number of writhes was recorded for each mouse in groups of 10 animals during a 5 to 10 minute period following 2 mg/kg. 1.p. of phenylquinone.
Groups of 10 male ICR mice weighing 22±2 gm were employed. Three doses (10, 30 and 100 mg/kg) of test substances suspended in a vehicle of 2% Tween 80 were administered per os. The control group received vehicle alone. […] The mean±SEM value of writhing number for each treatment group was then calculated and Dunnett's test was applied for comparison between vehicle and treated groups. Differences were considered significant when P<0.01.

Data set [3] relates to Rats (Sprague-Dawley). As to the kind of experiment: Rat hot-plate assay (55° C.) for general analgesia. The data set is classed as in vivo. On the procedure:
The purpose of the experiment was to determine if the compound of Example 16 has significant general analgesic activity as opposed to the desired activity against neuropathic pain. Test compound, 1% methylcellulose as a vehicle and morphine sulfate as a positive standard were tested for analgesic activity using a rat hot-plate assay (55° C.) of Eddy and Leimbach (J. Pharmacol. Ep. Ther 107; 385-393 (1953)) to evaluate nociceptive responses.
Rats (Sprague-Dawley, 217-227 g.) were used with 10 animals per group. Two pre-dose trials to nociceptive responses were determined before administration of compounds. Sixty minutes prior to testing, rats were dosed with either test compound (100 mg/kg, p.), as a suspension in 1% methylcellulose, or 1% methylcellulose as a vehicle ([…], p.). thirty minutes prior to testing, a third group was dosed with morphine sulfate (4.0 mg/kg, 2.0 ml/kg, sc) to test for nociceptive responses using a hot plate. Latency to rear paw licking response or jump response (1) was recorded using an electronic timer. The cut-off time for either response was 30 seconds. Statistical significance was assessed for paired groups using a Turkey test and between non-paired groups using Kruskal-Wallis test. A probability value of <0.05 was identified as statistically significant.
For orientation: Thermal pain tests record how soon the animal reacts.

The subject of data set [4] is Chronic constriction injury (CCI) rats. Kind of data set: Bennett chronic constriction injury (CCI) mononeuropathy, cold allodynia assay. The data set is classed as in vivo, Sparague Dawley rats. The following applies: 100 mg/kg, p.o., tested 1-2 hrs post-dose; FIG. 3. The method, then: The peripheral mononeuropathy was induced by loose ligation of the sciatic nerve in anaesthetized rats. Ten days later, the nociceptive threshold was evaluated. The test compound is administered orally 1 hour prior to pain measurement. For comparison, a predose threshold was determined and a control experiment using 1% methyl cellulose was run. […] Animals were again tested 1-2 hrs post-dose. Predose and postdose average scores are determined.
In a related experiment a dose-response relationship for the compound of Example 20 was determined using the same experimental protocol. […] Animals were again tested 1 hr post-dose.

Turning to `CC(C)[N+]([O-])=Cc1cc(C(C)(C)C)c(O)c(C(C)(C)C)c1` [Example 27, a-(4-hydroxy-3,5-di-tert-butylphenyl)-N-(1-methylethyl)nitrone], in data set [1], the “% Inhibition of Writhing Response” value turned out to be 30%. The same measure, in the same setting: in the case of `CC(C)(C)c1cc(C=[N+]([O-])Cc2ccccc2)cc(C(C)(C)C)c1O` [Example 28, a-(4-hydroxy-3,5-di-tert-butylphenyl)-N-benzylnitrone] it was 45%.

One may read the melting point as the temperature, or range, at which the solid turns liquid. Molecule `COCOc1c(C(C)(C)C)cc(/C=[N+](\[O-])Cc2ccccc2)cc1C(C)(C)C` [Example 31, α-(4-methoxymethoxy-3,5-di-tert-butylphenyl)-N-benzylnitrone] showed a melting point of 134.2 °C.

Regarding `COCOc1c(C(C)(C)C)cc(C=[N+]([O-])CC2CCCCC2)cc1C(C)(C)C` [Example 29, α-(4-methoxymethoxy-3,5-di-tert-butylphenyl)-N-cyclohexylmethylnitrone], the melting point was determined as 143.1 °C.

`CCOC(=O)COc1c(C(C)(C)C)cc(C=[N+]([O-])C(C)(C)C)cc1C(C)(C)C` [Example 34, α-(4-carbethoxymethoxy-3,5-di-tert-butylphenyl)-N-tert-butylnitrone] showed a melting point of 188 °C. Still for that read-out and setting: the value for `CCC(=O)Oc1c(C(C)(C)C)cc(/C=[N+](\[O-])C(C)(C)C)cc1C(C)(C)C` [Example 8, α-(4-propionyloxy-3,5-di-tert-butylphenyl)-N-tert-butylnitrone] was 202 to 222 °C.

With `CCCCCC[N+]([O-])=Cc1cc(C)c(O)c(C)c1` [Example 23, a-(4-hydroxy-3,5-dimethylphenyl)-N-hexylnitrone], the “% Inhibition of Writhing Response” value in data set [1] was determined as 47%. Also, the “activity in PQ writhing model” value in data set [1] (mice, oral) is “Significant activity”. Regarding `CCC(C)(C)[N+]([O-])=Cc1cc(C(C)(C)C)c(O)c(C(C)(C)C)c1` [Example 26, a-(4-hydroxy-3,5-di-tert-butylphenyl)-N-(1,1-dimethylpropyl)nitrone], the “% Inhibition of Writhing Response” value in data set [1] is on record as 48%. In the case of `CC(C)(C)c1cc(C=[N+]([O-])C(C)(C)CO)cc(C(C)(C)C)c1O` [Example 25, a-(4-hydroxy-3,5-di-tert-butylphenyl)-N-(1,1-dimethyl-2-hydroxyethyl)nitrone], the “% Inhibition of Writhing Response” value in data set [1] was 30%. In data set [1] (mice, oral), the “activity in PQ writhing model” value is listed as “Significant activity”. In general, inhibition refers to the change of the read-out against control, counted positive when it falls. As for `CCOc1c(C(C)(C)C)cc(/C=[N+](\[O-])C(C)(C)C)cc1C(C)(C)C` [Example 33, α-(4-ethoxy-3,5-di-tert-butylphenyl)-N-tert-butylnitrone], the melting point came to 212.1 °C. The inhibition at 30 mg/kg in data set [1] (Mus musculus) was 4%.

In the case of “a-(4-hydroxy-3,5-dimethoxyphenyl)-N-tert-butylnitrone [Example 22]”, in data set [1], the “% Inhibition of Writhing Response” value is 32%. For “a-(4-hydroxy-3,5-dimethylphenyl)-N-tert-butylnitrone [Example 24]”, the “% Inhibition of Writhing Response” value in data set [1] is listed as 23%. For “α-(4-Isobutanoyl-3,5-di-tert-butylphenyl)-N-tert-butylnitrone [Example 2]”, in data set [1], the “% Inhibition of Writhing Response” value turned out to be 29%. Same read-out and setting: in the case of “α-(4-n-Butanoyl-3,5-di-tert-butylphenyl)-N-tert-butylnitrone [Example 3]” it was 62%. Regarding `CC(=O)Oc1c(C(C)(C)C)cc(/C=[N+](/C)[O-])cc1C(C)(C)C` [Example 9, α-(4-acetoxy-3,5-di-tert-butylphenyl)-N-methylnitrone], the melting point was 136 to 143 °C. Consider `CC(C)(C)CC(C)(C)[N+]([O-])=Cc1cc(C(C)(C)C)c(O)c(C(C)(C)C)c1` [Example 21, α-(4-hydroxy-3,5-di-tert-butylphenyl)-N-tert-octylnitrone], for which the melting point lay in the range of 113 to 115 °C. Further, in data set [1] (Mus musculus), the inhibition at 30 mg/kg was 30%. For `COc1c(C(C)(C)C)cc(/C=[N+](\[O-])C(C)(C)C)cc1C(C)(C)C` [Example 32, α-(4-methoxy-3,5-di-tert-butylphenyl)-N-tert-butylnitrone] the same measures were 223.1 °C and 38%. In general, ED50 refers to the midpoint of the dose-response relation. In the case of `CC(=O)Oc1c(C(C)(C)C)cc(/C=[N+](\[O-])C(C)(C)C)cc1C(C)(C)C` [Example 1, α-(4-Acetoxy-3,5-di-tert-butylphenyl)-N-tert-butylnitrone], the inhibition at 30 mg/kg in data set [1] (Mus musculus) was 65%. Also, the 50% effect level in data set [1] (Mus musculus, dose response, oral, mice) (ED50) was put at a dose of 2.7 mg/kg. Consider `COCOc1c(C(C)(C)C)cc(/C=[N+](\[O-])C(C)(C)C)cc1C(C)(C)C` [Example 16, α-(4-Methoxymethoxy-3,5-di-tert-butylphenyl)-N-tert-butylnitrone], for which the “analgesia relative to vehicle control group (PQ writhing)” value in data set [2] (100, 30 and 10 mg/kg orally, P<0.01 for all 3 doses, Dunnett's test) is “significant”. The “# Writhes (X + SEM)” value is 3.9 ± 1.3** in data set [2] (Dose 30 mg/kg), 14.9 ± 1.2** in data set [2] (Dose 10 ml/kg as printed) and 1.3 ± 0.6** in data set [2] (Dose 100 ml/kg as printed). The “effect on hot-plate latency compared with pre-dose” value in data set [3] (100 mg/kg orally, sixty minutes prior to testing) is listed as “did not significantly affect”. For the same molecule, in data set [3] (100 mg/kg orally, sixty minutes prior to testing, pre-dose 7.9±1.0 seconds), the “hot-plate latency, post-dose (mean±SEM)” value worked out at 9.7 ± 1.0 s. Moreover, the “effectiveness in cold stimulus latency, Bennett CCI model” value in data set [4] is on record as “effective”. Regarding `CN1CC[C@]23c4c5ccc(O)c4O[C@H]2[C@@H](O)C=C[C@H]3[C@H]1C5.O=S(=O)(O)O` [morphine sulfate, reference compound], the “effect on hot-plate mean latency compared with pre-dose” value in data set [3] (4.0 mg/kg sc, thirty minutes prior to testing) is “significantly increased”. The “hot-plate mean latency to jump/hind paw licking response, post-dose (mean±SEM)” value in data set [3] (4.0 mg/kg sc, thirty minutes prior to testing, pre-dose 9.9±1.0 seconds, P<0.001) came to 24.3 ± 2.3 s.
